From patent publication US20140371244A1, “METHOD FOR TREATING PROSTATE CANCER BY USE OF PHARMACEUTICAL COMPOSITION CONTAINING A3 ADENOSINE RECEPTOR AGONIST” (priority 2009, published 2014) come the findings set out here.

The test system of data set [1] is LNCaP cells. Briefly: Cell cycle analysis (FACS) in LNCaP cells. The following applies: 40, 20 and 10 μM, 48 hours. Format: cell-based, human. The protocol: Cells were treated with 40, 20 and 10 μM of thio-Cl-IB-MECA and cultured for 48 hours, and the cell cycle of the cells was analyzed by flow cytometer analysis (FACS). Specifically, cells were diluted with 10% FBS-containing medium to a density of 1.0×10^6 cells per 100 mm culture dish and cultured under the conditions of 37° C. and 5% CO2 for 24 hours, followed by washing twice with PBS. Thio-Cl-IB-MECA was diluted in 10% FBS-containing medium at required concentration, and then 10 ml of the culture medium prepared in the 100 mm culture dish was added thereto and cultured for a given time. The non-adherent cells and adherent cells in the cell medium were collected and washed twice with PBS, after which 500 μL of 100% cold methanol was added thereto and the cells were fixed at 4° C. The cells were washed twice with PBS and allowed to stand in RNase A-containing solution for 30 minutes, after which the cells were stained with propidium iodide (PI) buffer for 5 minutes. After removal of the PI buffer, the cells were transferred into a polystyrene round-bottom tube, and cell cycle analysis was performed by FACScalibur® flow cytometry.

In another data set the test system is RAW 264.7 cells. Briefly: MTT assay, cytotoxicity in RAW 264.7 cells. Format: cell-based, mouse. The following applies: 20 μM (highest concentration). The protocol:
In order to example whether the iNOS production inhibitory effect is attributable to the toxicity of the sample itself (inventive composition, thio-Cl-IB-MECA), an MTT (3-(4,5-dimethylthiazol-2-yl)-2,5-diphenyltetrazolium bromide) assay was performed.
In general terms: Tetrazolium dyes change colour on reduction, which living cells bring about.

Data set [2] relates to LNCaP cells. Briefly: Western blot of cell cycle regulation-related proteins and Wnt signaling in LNCaP cells. Format: cell-based, human. The protocol: A test was carried out to examine whether the inhibitory effects of thio-Cl-IB-MECA on the proliferation of LNCaP cells and PC-3 cells are attributable to regulation of the Wnt signaling pathway.
Specifically, each type of LNCaP cells and PC-3 cells was diluted with 10% FBS-containing medium to a density of 1.0×10^6 cells per 100 mm culture dish and cultured under the conditions of 37° C. and 5% CO2 for 24 hours, followed by washing twice with PBS. Thio-Cl-IB-MECA was diluted in 10% FBS-containing medium at required concentration, and then 10 ml of the culture medium prepared in the 100 mm culture dish was added thereto and cultured for a given period. The non-adherent cells and adherent cells in the cell medium were collected and washed twice with PBS, after which the cells were suspended in boiling cell lysis buffer and heated at 100° C. for 5 minutes. The cells were cooled and then stored at […], and the stored cells were thawed at 37° C. immediately before use in protein quantification and electrophoresis. Protein quantification was performed using the BCA method, and […] of protein was electrophoresed on 8-12% SDS-polyacrylamide gel at 150 V for 110 minutes. The gel at the desired site was cut and transferred to a PVDF (polyvinylidene fluoride) for 1 hour, and after which it was washed twice with PBST and stirred in blocking buffer at room temperature for 1 hour. Then, the membrane was washed three times with PBST for 5 minutes each time, after which primary antibody was diluted at a ratio of 1:1,000-1:2,000 with 3% skimmed milk/PBST, and it was sealed together with the membrane and incubated with stirring at 4° C. for 12 hours or more. The membrane was washed 2-3 times with PBST for 5 minutes each time, after which HRP-conjugated secondary antibody was diluted at a ratio of 1:1,500-1:2,000 and incubated with the membrane at room temperature for 2-3 hours. The membrane was washed three times with PBST for 5 minutes each time and treated with a Western blot substrate (WESTSAVE Up™), and the produced luminescence was examined using LAS-3000.

The test system of the next data set is IL-1β. Put plainly: IL-1β gene and protein expression in LPS-stimulated RAW 264.7 cells. Format: cell-based, mouse. The following applies: 5, 10, 20 μM, LPS 1 μg/ml. On the procedure:
IL-1β is one of major factors involved in inflammation and functions to induce the expression of several genes related to inflammation and tissue injury. Thus, the effects of the inventive composition on the expressions of mRNA gene and protein of IL-1β were tested. Specifically, RAW 264.7 cells were pretreated with each of 20, 10 and 5 μM of the inventive composition (thio-Cl-IB-MECA) and treated with LPS (1 μg/ml) to induce inflammatory reactions, followed by culture for 4 hours. The RNA fraction was collected and cultured for 8 hours, and then the protein was collected and subjected to RT-PCR and Western blot.

For another data set, the system named is LNCaP. Put plainly: Morphological change of LNCaP cells. Format: cell-based, human. To be noted: 40, 20 and 10 μM, 48 hours. The protocol:
Each of LNCaP and PC-3 prostate cancer cell lines was treated with 40, 20 and 10 μM of thio-Cl-IB-MECA and cultured for 48 hours, and then the morphological change of the cells was observed.
Specifically, each type of the prostate cancer cells was diluted with 10% FBS (Fetal Bovine Serum)-containing medium to a density of 1.0×10^6 cells per 100 mm culture dish and cultured under the conditions of 37° C. and 5% CO2, followed by washing twice with PBS (Phosphate Buffered Saline). Thio-Cl-IB-MECA was diluted in 10% FBS-containing medium at required concentration, and then 10 ml of the culture medium prepared in the 100 mm culture dish was added thereto and incubated for a given time. The morphology of the cells was observed as a function of treatment time and concentration (FIGS. 11a and 11b).

For `CNC(=O)[C@H]1S[C@@H](n2cnc3c(NCc4cccc(I)c4)nc(Cl)nc32)[C@H](O)[C@@H]1O` [thio-Cl-IB-MECA, 2-chloro-N^6-(3-iodobenzyl)-4′-thioadenosine-5′-N-methyluronamide], in the data set with LNCaP cells [1], the “G1 phase of cell cycle, LNCaP” value was “an increase in the G1 phase appeared”. For the same molecule, in the data set with RAW 264.7 cells, the “viability of RAW 264.7 cells (MTT)” value worked out at 80%. Besides, in the data set on LNCaP cells [2], the “Wnt signaling pathway, LNCaP” value was “inhibited the Wnt signaling pathway”; the “expression and RB phosphorylation of cyclin D, cyclin A, CDK4, c-myc and PCNA, LNCaP” value is “inhibited the expression and RB phosphorylation”; the “expression of p53 and p27, LNCaP” value is on record as “increased the expression”. For the same molecule, the “expression of IL-1β gene” value in the data set with IL-1β (RT-PCR) is given as “concentration-dependently inhibited”. The “expression of IL-1β protein” value in the data set on IL-1β (Western blot) is “concentration-dependently inhibited”. Also, the “number of the cells, LNCaP” value in the data set on LNCaP is listed as “decreased in a concentration-dependent manner”.
